{
  "source": "patent US20050058600A1",
  "about": "“3,3'-Diindolylmethane antiandrogenic compositions” (priority 2003, published 2005)",
  "key": {"breast cancer cells": {"test_system": "breast cancer cells", "details": "in culture; cited from earlier work"}, "GFP-AR": {"test_system": "GFP-AR", "assay": "Fluorescence imaging of GFP-AR in transfected PC-3 cells", "format": "cell-based", "method": "Transient Transfections with Reporters and Luciferase Assay. LNCaP and PC-3 cells were transfected, with some modifications, as previously described (20). For AR transactivation, cells were transfected with 0.1 μg of MMTV-Luc or pPSA-Luc per plate. Co-transfection experiments with pCMV-hAR or pCMV-GFP-rAR, 0.1 μg per plate was also used. For experiments involving GFP fluorescence imaging, treatments were not added until 30 h after transfection.\nFluorescence Imaging. PC-3 cells were plated on cover slips in six-well culture plates at 1.5×10^5 cells per well in 5% DCC-FBS-DMEM medium. Cells were co-transfected with pCMV-GFP-rAR and pPSA-Luc or MMTV-Luc as indicated above. Cover slips were placed on microscope slides and images were taken at 1000×."}, "[1]": {"test_system": "wild-type recombinant human AR", "assay": "Competitive [3H]DHT binding assay, recombinant AR protein", "details": "micromolar concentration range"}, "[2]": {"test_system": "dimethylbenzanthracene (DMBA)-induced mammary tumors", "details": "rats; cited from earlier work"}, "[3]": {"test_system": "BP-induced pulmonary adenomas", "details": "mice; cited from earlier work"}, "LNCaP cells": {"test_system": "LNCaP cells", "assay": "LNCaP cell proliferation (cell counting)", "format": "cell-based", "details": "Homo sapiens, 96 h treatment, read-out: maximal inhibition of LNCaP cell proliferation", "method": "DIM was prepared from I3C as described (26-28) and recrystallized in toluene. The human prostate adenocarcinoma cell lines LNCaP-FGC and PC-3 were obtained from the American Type Culture Collection (Rockville, Md.). They were grown as adherent monolayers in 10% FBS-DMEM, supplemented with 4.0 g/L glucose and 3.7 g/L sodium bicarbonate in a humidified incubator at 37° C. and 5% CO2 and passaged at approximately 80% confluency. Cultures used in subsequent experiments were at less than 40 passages. Cells grown in stripped conditions were in 5% DCC-FBS-DMEM base supplemented with 4.0 g/L glucose, 3.7 g/L sodium bicarbonate, and 0.293 g/L L-Glutamine.\nCell Growth. Before the beginning of the treatments, cells were depleted of androgen for 4-7 d in medium composed of DMEM base without phenol-red and with 4.0 g/L glucose and 3.7 g/L sodium bicarbonate. During the depletion period, medium was changed every 48 h. Treatments were administered by addition of 1 μL of 1,000× solution in DMSO per mL of medium. Once the treatment period started, medium was changed daily to counter possible loss of readily metabolized compounds.\nCell Counting. Cells were harvested by trypsinization and resuspended in culture medium. Aliquots were diluted 50-fold in Isoton II (Coulter Corp., Miami, Fla.) and 200 μL duplicates were counted in a model Z1 Coulter particle counter and averaged."}, "PSA gene expression": {"test_system": "PSA gene expression", "assay": "Northern blot of endogenous PSA mRNA in LNCaP cells", "format": "cell-based, human", "method": "RNA Extraction, mRNA Purification and Northern Hybridization. mRNA isolation and Northern blot analyses were conducted as described previously (20, 31). PSA cDNA and the cDNA probes were biotinylated using NEBlot Phototope kit (New England Biolabs, Beverly, Mass.), purified via precipitation with 3 M sodium acetate (pH 5.2) and washed with 70% ethanol. After hybridization with cDNA probes, the membrane was incubated with streptavidin then biotinylated with alkaline phosphatase followed by the Phototope-CDP-Star assay (New England Biolabs, Beverly, Mass.), and autoradiographed. The amount of mRNA was quantified by Gel Densitometer (Bio-Rad) and normalized with β-actin as an internal control."}, "[4]": {"test_system": "benzo(a)pyrene (BP)-induced tumors of the forestomach", "details": "mice; cited from earlier work"}},
  "data": [
    {"molecule": "c1ccc2c(Cc3c[nH]c4ccccc34)c[nH]c2c1", "note": "[DIM, 3,3′-diindolylmethane]", "values": [
      {"measurement": "programmed cell death in human breast tumor cells", "setting": "breast cancer cells", "result": "induced programmed cell death"},
      {"measurement": "proliferation of breast cancer cells", "setting": "breast cancer cells", "result": "inhibit proliferation"},
      {"measurement": "distribution of GFP-AR fluorescence", "setting": "GFP-AR; DIM alone", "result": "predominantly cytoplasmic distribution"},
      {"measurement": "formation of AR foci in the nucleus", "setting": "GFP-AR; DIM treatment with DHT", "result": "prevented the formation of AR foci"},
      {"measurement": "inhibition of AR translocation induced by DHT", "setting": "GFP-AR; co-treatment with 50 μM DIM and 1 nM DHT", "result": "partially inhibited"},
      {"measurement": "competition with labeled DHT for binding to the AR", "setting": "[1]", "result": "competes with labeled DHT for binding to the AR"},
      {"measurement": "incidence of DMBA-induced mammary tumors", "setting": "[2]", "result": "reduced the incidence"},
      {"measurement": "incidence of BP-induced pulmonary adenomas", "setting": "[3]", "result": "reduced the incidence"},
      {"measurement": "inhibition at 50 µM", "setting": "LNCaP cells", "result": 70, "unit": "%"},
      {"measurement": "inhibition of PSA mRNA induction by DHT", "setting": "PSA gene expression; 24 h co-treatment with DIM", "result": "up to 80%"},
      {"measurement": "decrease in PSA mRNA levels", "setting": "PSA gene expression; DIM treatment, concentration- and time-dependent", "result": "up to 70%"},
      {"measurement": "incidence of BP-induced tumors of the forestomach", "setting": "[4]", "result": "reduced the incidence"}
    ]}
  ]
}
